According to US20130216579A1, “METHODS AND COMPOSTITIONS FOR GENE EDITING OF A PATHOGEN” (priority 2012, published 2013):

Key:
[1] = system: 106/1^13/15mut2 and 106/1^14/15mut1 parasite lines; assay: In vitro CQ IC50 of gene-edited 106/1 lines, parasitemia by flow cytometry after 72 h; format: cell-based, P. falciparum; conditions: lines 106/1^13/15mut2 and 106/1^14/15mut1, 72 h
Description: (§1) We also confirmed the CQ resistance phenotype of two gene-edited lines, 106/1^13/15mut2 and 106/1^14/15mut1 (FIG. 4A). […] Parasitemia was determined by flow cytometry after a 72 h incubation with drug. Parasites were stained with 1.6 μM Mito Tracker® (Molecular probes, Invitrogen) and 2×Sybr® Green (Molecular probes, Invitrogen) in 1×PBS supplemented with 5% FBS as described. In vitro IC50 values were calculated by non-linear regression analysis and Mann-Whitney U tests were employed for statistical analysis.

[2] = system: GC03^crt-Dd2 G9 and GC03^crt-Dd2 H6 parasite clones; assay: In vitro CQ IC50 of pfcrt allelic replacement clones vs GC03 parent; format: cell-based, P. falciparum
Description: To quantify the efficiency of pfcrt allelic replacement, clones were generated by limiting dilution and analyzed by PCR. We observed replacement events in 13/82 (15.9%) 106/1 clones and 4/83 (4.8%) GC03 clones (FIG. 3B).
as §1

[3] = system: CQS strain 106/1; assay: CQ exposure of non-transfected 106/1 cultures; format: cell-based, P. falciparum; conditions: 33 nM CQ, six independent non-transfected 106/1 cultures
[4] = system: ZFN 30413 (synthetic construct); assay: cell_activity; conditions: pair with 30415; K76I conversion 29/29 and 25/25 in 106/1 with CQ selection; 2/36 clones in Dd2 without selection
[5] = system: ZFN 30414 (synthetic construct); assay: cell_activity; conditions: pair with 30415; K76I conversion 38/38, 28/28 and 31/31 in 106/1 with CQ selection; 10/40 clones in Dd2 without selection

For CCN(CC)CCCC(C)Nc1ccnc2cc(Cl)ccc12 (centres unmarked) [CQ, chloroquine], which “shift in CQ IC50 values relative to the unmodified 106/1 parent line” value [1] is on record?
Its value is 5-6 fold.

What about the “shift in CQ IC50 values compared to the GC03 parent” value [2] of the same compound?
The value was 4- to 5 fold.

What about the “parasite outcome under CQ exposure” value [3] of the same compound?
The value was “yielded no parasites after 90 days”.

For “CTGTTAAGGTCGACAAGGGAAAAAAAAA (double strand) [pfcrt 30413 target site]”, which activity [4] is on record?
The activity was 100%.

“CTGTTAAGGTCGACAAGGGAAAAAAAAA (double strand) [pfcrt 30414 target site]” was tested. Which activity [5] did it give?
Its activity is 100%.
